These are literature values, as cited in patent publication US7129073B2, “Regulation of neuronal function through metabotropic glutamate receptor signaling pathways” (The Rockefeller University, priority 2001, dated 2006).

As usually defined, the IC50 is the midpoint of a concentration-inhibition curve.

In the data set the target is T1, T-cell protein-tyrosine phosphatase (TC PTP) (Homo sapiens, UniProt P17706).
T1 sequence (P17706 1-415): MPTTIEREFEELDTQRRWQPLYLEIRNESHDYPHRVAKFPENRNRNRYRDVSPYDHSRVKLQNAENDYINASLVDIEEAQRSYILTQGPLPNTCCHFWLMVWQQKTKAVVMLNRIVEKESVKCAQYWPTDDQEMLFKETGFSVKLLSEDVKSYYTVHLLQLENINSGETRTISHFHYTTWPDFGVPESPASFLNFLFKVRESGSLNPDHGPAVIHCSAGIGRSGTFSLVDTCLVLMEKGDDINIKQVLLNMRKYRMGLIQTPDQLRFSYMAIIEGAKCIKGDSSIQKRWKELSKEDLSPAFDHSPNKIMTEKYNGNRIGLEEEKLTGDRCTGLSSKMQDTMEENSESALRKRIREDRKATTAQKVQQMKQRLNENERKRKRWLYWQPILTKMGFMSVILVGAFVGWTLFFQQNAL
As to conditions: cited from earlier work.

As for `[Na+].[Na+].[Na+].[O]=[V]([O-])([O-])[O-]` [Na3VO4], the “effect on TC PTP-dependent change in polarization” value (50 μM Na3VO4) is given as “inhibited”. Moreover, the 50% inhibitory concentration (IC50) (FP-based direct binding assay) is 4 nM.
